Assay results taken from US11597708B2, “Inhibitors of heat shock factors and uses thereof” (HSF Pharmaceuticals SA, priority 2016, dated 2023).

Test system: HeLa
Assay: Alamar Blue viability assay
Type: cell-based, human
Details: for Viability of HeLa cells (Alamar Blue): 96 hours exposure, attached cells
Experimental: FIG. 5. (A) Viability of HeLa cell cultures mock-exposed (−) or exposed to the indicated concentrations of compounds 001, 058 or 115. (B) Viability of MM.1S cells mock-exposed (−) or exposed to the indicated concentrations of compound 115. Viability was assayed after 96 hours of exposure using an Alamar Blue assay.
FIG. 6. (A) HeLa cell cultures were mock-exposed (−) or exposed to the indicated concentrations of compound 115 for 24 (left panel) or 96 (right panel) hours. Cell viability of total cultures, floating cells and attached cells was assayed using an Alamar Blue assay. (B) HeLa cell cultures were mock-exposed (−) or exposed to the indicated concentrations of compound 115 for 15-96 hours. Trypan Blue dye exclusion was employed to determine numbers of live cells (left panel) and relative levels of necrotic cells (right panel). (C) HeLa cell cultures were mock-exposed (−) or exposed to the indicated concentrations of compound 115 for 6 and 24 h. Shown are relative levels of early apoptotic cells (annexin-positive, 7 aminoactinomycin D-negative). (D) Flow cytometric analysis of DNA of HeLa cell cultures mock-exposed (−) or exposed to the indicated concentrations of compound 115 for 6, 15 and 24 hours. Relative levels of apoptotic cells are indicated.
Cultures of HeLa cells were exposed for 96 hours to different concentrations of IHSF 001, 058 and 115, and viability was assessed using an Alamar Blue assay. It is noted that this standard assay examines attached cells only. This subject will be discussed in more detail below. […] The relative cytotoxicity of the compounds appears to parallel their respective activities as inhibitors of HSF1 function (inhibition of RLuc expression in Z74 cells). We next examined the viability of different human cancer cell lines subsequent to a 96-hour exposure to compound 115 (Table 3). HSF1 was reported as being required for optimal p21 expression and for p53-mediated cell cycle arrest in response to genotoxins. Logan, I. R. et al. (2009) Nucleic Acids Res. 37: 2962-2971. […] Cell lines of different p53 status were included in the experiments in order to find out whether sensitivity to IHSF 115 was related to p53 status. […] No effect of p53 status could be discovered. It is noted that a number of additional HSF inhibitors of the present disclosure were tested and found to effectively reduce the viability of human cancer cells.
Further studies were aimed at finding out whether IHSF-exposed cancer cells were only growth-arrested or were actually killed and, if they were killed, by what mechanism. In one type of experiment, parallel sets of HeLa cell cultures were exposed for either 24 or 96 hours to different concentrations of IHSF 115. The first set was assayed for viability by the Alamar Blue assay without prior removal of floating cells. Attached and floating cells were assayed separately in the second set; floating cells were subsequently re-plated and incubated for 72 hours without compound. […] The viability signal (in whole cultures and, more dramatically, when only attached cells were analyzed) decreased as a function of IHSF concentration. Most floating cells were incapable of re-attaching in the absence of compound (not shown); apparently, these cells had died. More profound effects were observed after 96 hours (right panel) than after 24 hours of exposure (left panel). […] Stained (necrotic) and unstained (live) cells were counted (FIG. 6B). […]

Row | SMILES | Viability of HeLa cells (Alamar Blue) (different concentrations) | killing of HeLa cells (Alamar Blue, total, floating and attached cells) (24 or 96 hours exposure, different concentrations) | EC50 (Homo sapiens, HeLa, Cervical, P53 Wt, 96-hour exposure) [µM]
1 | CCOC(=O)/C=C/C(=O)Nc1nccs1 [IHSF 001, (E)-ethyl 4-oxo-4-(thiazol-2-ylamino)but-2-enoate] | decreased in a dose-dependent fashion |  | 
2 | CCOC(=O)/C=C/C(=O)Nc1ncc(-c2cccnc2)s1 [IHSF 058, (E)-3-(5-Pyridm-3-yl-thiazol-2-ylcarbamoyl)-acrylic acid ethyl ester] | decreased in a dose-dependent fashion |  | 
3 | CN(C(=O)/C=C/C1=NCCCO1)c1ncc(-c2cccnc2)s1 [IHSF 115, (E)-3-(5,6-Dihydro-4H-[1,3]oxazin-2-yl)-N-methyl-N-(5-pyridin-3-yl-thiazol-2-yl)-acrylamide] | decreased in a dose-dependent fashion | killed by IHSF 115 in a concentration- and exposure time-dependent fashion | 6.2
